Key:
[1] = Plasma PK in rhesus macaques; assay type: in vivo, rhesus macaque; details: 0.03, 0.1, 0.3, and 1 mg/kg, slow IV infusion
Protocol: Male rhesus macaque monkeys (young adult to adult) were sourced from the Covance stock colony for conduct of in vivo studies at Covance Laboratories Inc. (Madison, Wisconsin, USA). Monkeys were administered a single dose of vehicle control (n = 3), 0.03, 0.1, 0.3, or 1 mg/kg of C-232A (n = 1) by intravenous infusion over 30 minutes using a sentinel approach. An additional 2 male monkeys were administered 0.3 mg/kg C232A after it was determined that this was the maximum tolerated dose level. Blood samples were collected through 24 hours postdose. Samples for PK (for measurement of C-232A concentration) and cytokine analysis were processed to plasma and shipped to Gilead Sciences. Activation of CD4^+ T cells was assessed by measuring CD69 expression levels in whole blood by flow cytometry (Covance Laboratories). Samples for clinical pathology were analyzed at Covance Laboratories for hematology, coagulation, and clinical chemistry panels. […] Tissues were then evaluated independently (Experimental Pathology Laboratories, Inc).
Rat and rhesus plasma samples (20 µL aliquot of each) were treated with 100 µL acetonitrile containing a generic internal small-molecule standard. […] The descriptive PK parameters were analyzed using noncompartmental analysis with Phoenix WinNonlin software (version 8.2, Certara USA, Inc.). […]

PKC-α = PKC-α (Homo sapiens, UniProt P17252); assay: PKC isoform translocation in A549-tGFP cells; assay type: cell-based; parameters: host or cells: A549; details: A549-tGFP cells, 60 minutes; read-out: EC50 for PKC-α translocation
Protocol: A description of this effort is reported elsewhere.
Cellular translocation of PKC isoforms upon activation was determined in 8 A549 cell lines, each expressing a single PKC isoform fused to tGFP (PhenoVista Biosciences). Cells were plated in 384-well plates (80 μL/well) at 10^5 cells/mL in RPMI with 10% FBS and rested overnight. PKC agonist(s) were serially diluted at 1:3 steps in DMSO and added to the cells. After 60 minutes in an incubator at 37 °C, 5% CO2, cells were stained with Hoechst-33342 and fixed with 2% paraformaldehyde for 30 minutes at 4 °C. Cells were then stained with wheat germ agglutinin conjugated to AlexaFluor647 (WGA-647) for 10 minutes at 4 °C, washed to remove excess dye and imaged with Cellomics Array Scan (Thermo Fisher) at room temperature (RT). Images were analyzed using Cellomics automated image analysis algorithm. Plasma membrane translocation was quantified using the ratio between the average fluorescence in the areas at the cell edge defined by WGA-647 and the cytoplasm region.

[2] = system: cellular p24 in CD4+ T cells; assay: Ex vivo HIV-Flow assay in CD4+ T cells; assay type: cell-based, HIV-1; details: 500 nM in HIV-Flow, 72 hours
Protocol: Isolated CD4^+ T cells from ART-suppressed people with HIV were cultured in RPMI medium containing 10% FBS, 100 nM efavirenz, and 1 μM tenofovir alafenamide at 2 million cells per mL. These cells were subsequently stimulated with DMSO (vehicle control), 500 nM PKC agonist C-233, or 162 nM PMA and 1 µg/mL ionomycin. The cells were cultured at 37°C, 5% CO2 for 3 days. After 3 days, the cells were washed with PBS, stained with Live/Dead Fixable Aqua for 25 minutes at 4°C, followed by 2% FBS in PBS wash. Cells were then fixed and permeabilized in FoxP3 Fix/Perm buffer (E-Bioscience, catalog 005523) for 45 minutes at 4°C, followed by FoxP3 Perm buffer wash. The samples were stained with 2 different anti-p24 antibodies, (KC57-PE/ Beckman Coulter, 6604667, and a28B7-APC Medimabs, MM-0289-APC) diluted 1:1000 in FoxP3 Perm buffer for 45 minutes at 4°C, washed with FoxP3 Perm buffer, and resuspended in PBS. The samples were run on the BD LSR Fortessa II flow cytometer. The data were analyzed using FlowJo version 10.7.1.
Supplementary file ppat.1012874.s012.png: S9 Fig C-233 induces HIV activation in CD4^+ T cells from ART-suppressed people with HIV. […]

[3] = system: CD4+ T cells from ART-suppressed people with HIV; assay: Cell viability (Cell Titer Glo); assay type: cell-based, human; details: 72 hours, doses that activated HIV RNA
Protocol: Supplementary file ppat.1012874.s011.png: S8 Fig Effect of C-233 on cell viability. CD4^+ T cells from ART-suppressed people with HIV were treated with the indicated C-233 concentrations for 72 hours. Cell viability was assessed using Promega Cell Titer Glo according to manufacturer’s instructions. Bars indicate the means and lines indicate standard deviation from 4 donors, each tested with 8 replicates. (PNG)

Q: Which results are given for `Cc1ccc(C#Cc2ccc3oc(CC(C)(C)C(=O)OCC4(CO)CC(=CCC(CC(C)C)CC(C)C)C(=O)O4)cc3c2)cc1` (stereo not shown) [C-232A]?
A: PK plasma profile [1]: dose-dependent C-232A PK plasma profiles; EC50 (PKC-α): > 39.5 µM

Q: Which results are given for `Cc1ccc(C#Cc2ccc(C(=O)OCC3(CO)Cc4c(-c5ccccc5)ccnc4O3)cc2)cc1` (stereo not shown) [C-233]?
A: HIV protein production (supernatant p24 and cellular p24 by HIV-Flow) [2]: activated production of viral protein; cell viability [3]: without impairing viability
